The source of these data is ChEMBL document CHEMBL5725438, “Tetrazole derivatives and their use as potassium channel modulators” (2017).

Usually IC50 stands for the concentration needed to halve the response being measured.

The target in this assay is Intermediate conductance calcium-activated potassium channel protein 4 (Homo sapiens, UniProt O15554). Description: Inhibition Assay: Human HEK293 cells over-expressing human IK are grown in culture medium (DMEM supplemented with 10% foetal bovine serum), in polystyrene culture flasks ([…]) in a humidified atmosphere of 5% CO2 in air, at 37° C. Cell confluence should be 80-90% on day of plating. Cells are rinsed with 4 mL of PBS (phosphate buffered saline) and incubated 2 min with 1 mL of Trypsin-EDTA. After addition of 25 mL of culture medium cells are re-suspended by trituration with a 25 mL pipette.The cells are seeded at a density of 3×10^6 cells/mL (25 μL/well) in black-walled, clear bottom, 384-well plates pre-treated with 0.01 g/L poly-D-lysin (20 μL/well for ≧30 min). Plated cells were allowed to proliferate for 24 h before loading with dye.BTC-AM ([…], Invitrogen) is added 25.5 μl DMSO. The BTC-AM stock solution (2 mM) is diluted to a final concentration of 2 μM in Cl+ free assay buffer (in mM: 140 Na+-gluconate, 2.5 K+-gluconate, 6 Ca2+-gluconate, 1 Mg2+ gluconate, 5 glucose, 10 HEPES, pH 7.3) containing 2 μM ouabain, 2 mM amaranth and 1 mM tartrazine.The culture medium is aspirated from the wells, and 25 μl of the BTC-AM loading solution are added to each well. The cells are incubated at 37° C. for 60 min.After the loading period, the Tl+-sensitive BTC fluorescence signal is measured over time using a FLIPR.
Intermediate conductance calcium-activated potassium channel protein 4, sequence (O15554 whole entry): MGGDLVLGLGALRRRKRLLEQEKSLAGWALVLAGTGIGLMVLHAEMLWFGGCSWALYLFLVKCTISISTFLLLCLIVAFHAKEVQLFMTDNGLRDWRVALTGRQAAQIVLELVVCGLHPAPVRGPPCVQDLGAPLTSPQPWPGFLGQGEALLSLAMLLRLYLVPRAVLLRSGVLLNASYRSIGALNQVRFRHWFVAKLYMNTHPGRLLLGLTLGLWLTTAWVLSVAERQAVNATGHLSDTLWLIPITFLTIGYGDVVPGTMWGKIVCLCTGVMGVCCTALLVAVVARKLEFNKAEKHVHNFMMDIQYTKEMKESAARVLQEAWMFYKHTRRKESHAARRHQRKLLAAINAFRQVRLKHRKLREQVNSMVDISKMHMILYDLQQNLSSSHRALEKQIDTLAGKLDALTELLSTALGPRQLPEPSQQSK

With `COCCNc1ccccc1-c1ccccc1-c1nnnn1-c1ccccc1F`, the IC50 came out at 680 nM.
